# Assay results from US12264139B2, “Aryl sulfonamides as BLT1 antagonists” (Merck Sharp & Dohme LLC, priority 2015, dated 2025).
# Target: T1, human BLT1 receptor (Homo sapiens, UniProt Q15722)
# T1 construct: expressed in transfected cells; host or cells: HEK293
# Assay: BLT-1 cAMP Assay
# Assay type: cell-based
# Conditions: HEK293 cells recombinantly expressing human BLT1; antagonist activity vs forskolin 4 μM and LTB4 2 nM; cAMP (CisBio kit)
# Method: The ability of compounds to antagonize the human BLT1 receptor was determined using a kit to measure changes in intracellular cyclic AMP levels (cAMP dynamic assay kit, Cisbio Cat. No. 62AM4PEC). […] The cell suspension was centrifuged at 200×g for 10 min and then resuspended in fresh assay medium to a density of 2.5×10^5 cells/mL. […] All subsequent liquid additions were performed using a BIORAPTR (FRD; Beckman Coulter). Next, 5 μL of cell suspension was added and incubated for 20 min. at 37° C. and 5% CO2 in a humidified plastic tray.
# The levels of cAMP were detected using the CisBio kit following the manufacturer's instructions: cAMP-d2 vial was reconstituted with distilled water and then diluted accordingly with conjugate & lysis buffer. 5 µL of cAMP-d2 working solution was added to all of the wells of the assay plate. cAMP-Cryptate vial was reconstituted with distilled water and then diluted accordingly with conjugate & lysis buffer. 5 µL of cAMP-Cryptate working solution were added to the assay plate. The assay plate was shaken for 3 minutes and incubated at room temperature for 45 minutes, then read on Perkin Elmer Envision. cAMP standard curve and fit data were plotted using a 4 parameter dose response curve fitting algorithm to fit curve. […] After normalization to treated and untreated controls, the percent effect of signal at each compound concentration was calculated. The plot of percent effect versus the log of compound concentration was fit with a 4-parameter concentration response equation to calculate EC50 values.
# T1 sequence (Q15722 whole entry): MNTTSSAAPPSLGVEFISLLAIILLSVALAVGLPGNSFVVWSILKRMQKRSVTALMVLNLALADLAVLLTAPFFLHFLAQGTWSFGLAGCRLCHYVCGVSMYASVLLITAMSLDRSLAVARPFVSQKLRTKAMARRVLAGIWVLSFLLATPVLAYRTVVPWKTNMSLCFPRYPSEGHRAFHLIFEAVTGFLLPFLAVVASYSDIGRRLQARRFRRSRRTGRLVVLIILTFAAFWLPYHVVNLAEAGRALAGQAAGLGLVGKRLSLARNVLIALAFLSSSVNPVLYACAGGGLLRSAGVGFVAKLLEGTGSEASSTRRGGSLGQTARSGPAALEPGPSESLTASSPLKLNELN
row,Structure (SMILES),EC50 [nM]
1,"CC(C)(C)c1nc(C[C@@H]2COc3cc(-c4ccccc4NS(=O)(=O)C(F)(F)F)ccc3[C@H]2O)cs1 (relative stereo) [Example 45, N-(2-((3,4-trans)-3-((2-(tert-butyl)thiazol-4-yl)methyl)-4-hydroxychroman-7-yl)phenyl)-1,1,1-trifluoromethanesulfonamide]",1430
2,"O=S(=O)(Nc1ccccc1-c1ccc2c(c1)OC[C@H](Cc1ccc(-c3ccccc3)cn1)[C@H]2O)C(F)(F)F (single isomer, unassigned) [Example 39, (2-((3S,4R or 3R,4S)-4-hydroxy-3-((5-phenylpyridin-2-yl)methyl)chroman-7-yl)phenyl)((trifluoromethyl)sulfonyl)amide]",1
3,"O=S(=O)(Nc1ccccc1-c1ccc2c(c1)OCC(Cc1ccccc1)C2O)C(F)(F)F (racemic) [Example 2, N-(2-((3,4-Rac-trans)-3-benzyl-4-hydroxychroman-7-yl)phenyl)-1,1,1-trifluoromethanesulfonamide]",31
4,"O=S(=O)(Nc1ccccc1-c1ccc2c(c1)OC[C@@H](Cc1cccs1)[C@@H]2O)C(F)(F)F (single isomer, unassigned) [Example 61, 1,1,1-trifluoro-N-{2-[(3R,4S or 3S,4R)-4-hydroxy-3-(thiophen-2-ylmethyl)-3,4-dihydro-2H-chromen-7-yl]phenyl}methanesulfonamide]",1340
5,"O=S(=O)(Nc1ccccc1-c1ccc2c(c1)OC[C@H](Cc1cnc(-c3ccccc3)s1)[C@H]2O)C(F)(F)F (single isomer, unassigned) [Example 43, 1,1,1-Trifluoro-N-(2-((3R,4S or 3S,4R)-4-hydroxy-3-((2-phenylthiazol-5-yl)methyl)chroman-7-yl)phenyl)methanesulfonamide]",64
6,"Cc1cccc(C[C@@H]2COc3cc(-c4ccccc4NS(=O)(=O)C(F)(F)F)ccc3[C@H]2O)n1 (single isomer, unassigned) [Example 63, 1,1,1-Trifluoro-N-(2-{(3,4-trans)-4-hydroxy-3-[(6-methyl-pyridin-2-yl)methyl]-3,4-dihydro-2H-chromen-7-yl}-phenyl)methanesulfonamide]",320
7,"O=S(=O)(Nc1ccccc1-c1ccc2c(c1)OC[C@H](Cc1ccncc1)[C@H]2O)C(F)(F)F (single isomer, unassigned) [Example 26, 1,1,1-trifluoro-N-{2-[(3S,4R or 3R,4S)-4-hydroxy-3-(pyridin-4-ylmethyl)-3,4-dihydro-2H-chromen-7-yl]phenyl}methanesulfonamide]",121
8,"O=S(=O)(Nc1ccccc1-c1ccc2c(c1)OC[C@H](Cc1cccs1)[C@H]2O)C(F)(F)F (single isomer, unassigned) [Example 62, 1,1,1-trifluoro-N-{2-[(3S,4R or 3R,4S)-4-hydroxy-3-(thiophen-2-ylmethyl)-3,4-dihydro-2H-chromen-7-yl]phenyl}methanesulfonamide]",23
9,"O=S(=O)(Nc1ccccc1-c1ccc2c(c1)OC[C@@H](Cc1ccc(-c3ccccc3)cn1)[C@@H]2O)C(F)(F)F (racemic) [Example 38, 1,1,1-Trifluoro-N-(2-{(rac-trans)-4-hydroxy-3-((5-phenylpyridin-2-yl)methyl)chroman-7-yl)phenyl)methanesulfonamide]",4
10,"O=S(=O)(Nc1ccccc1-c1ccc2c(c1)OC[C@@H](Cc1cscn1)[C@H]2O)C(F)(F)F (racemic) [Example 31, 1,1,1-trifluoro-N-(2-(3,4-rac-cis)-4-hydroxy-3-(thiazol-4-ylmethyl)chroman-7-yl)phenyl)methanesulfonamide]",1370
11,"Cc1cccnc1C[C@H]1COc2cc(-c3ccccc3NS(=O)(=O)C(F)(F)F)ccc2[C@@H]1O (single isomer, unassigned) [Example 60, 1,1,1-Trifluoro-N-(2-{(3,4-trans)-4-hydroxy-3-[(3-methylpyridin-2-yl)methyl]-3,4-dihydro-2H-chromen-7-yl}phenyl)methanesulfonamide]",269
12,"O=S(=O)(Nc1nnccc1-c1ccc2c(c1)OC[C@@H](Cc1ccccn1)[C@@H]2O)C(F)(F)F (single isomer, unassigned) [Example 90, N-(4-((3,4-trans)-4-hydroxy-3-(pyridin-2-ylmethyl)chroman-7-yl)pyridazin-3-yl)-1,1,1-trifluoromethanesulfonamide]",3080
13,"O=S(=O)(CC(F)(F)F)Nc1ncc(F)cc1-c1ccc2c(c1)OC[C@@H](Cc1ccccn1)[C@@H]2O (single isomer, unassigned) [Example 85]",63
14,"CCn1ccc(C[C@@H]2COc3cc(-c4ccccc4NS(=O)(=O)C(F)(F)F)ccc3[C@H]2O)n1 (single isomer, unassigned) [Example 47, N-(2-((3R,4S or 3S,4R)-3-((1-ethyl-1H-pyrazol-3-yl)methyl)-4-hydroxychroman-7-yl)phenyl)-1,1,1-trifluoromethanesulfonamide]",1200
15,"O=S(=O)(Nc1ccccc1-c1ccc2c(c1)OC[C@H](Cc1ncccc1F)[C@H]2O)C(F)(F)F (racemic) [Example 19, 1,1,1-Trifluoro-N-(2-{(rac-trans)-3-[(3-fluoropyridin-2-yl)methyl]-4-hydroxy-3,4-dihydro-2H-chromen-7-yl}phenyl)methanesulfonamide]",1600
16,"O=S(=O)(Nc1ccccc1-c1ccc2c(c1)OC[C@@H](Cc1ccccn1)[C@@H]2O)C(F)F (single isomer, unassigned) [Example 82, 1,1-Difluoro-N-(2-((3S,4R or 3R,4S)-4-hydroxy-3-(pyridin-2-ylmethyl)chroman-7-yl)phenyl)methanesulfonamide]",119
17,"O=S(=O)(Nc1ccccc1-c1ccc2c(c1)OC[C@H](Cc1ccccc1)[C@H]2O)C(F)(F)F (single isomer, unassigned) [Example 59, N-{2-[(3S,4R or 3R,4S)-3-benzyl-4-hydroxy-3,4-dihydro-2H-chromen-7-yl]phenyl}-1,1,1-trifluoromethanesulfonamide]",15
18,"O=S(=O)(Nc1ccccc1-c1ccc2c(c1)OC[C@H](Cc1ccccn1)[C@H]2O)C(F)(F)F [Example 54, 1,1,1-trifluoro-N-{2-[(3S,4R)-4-hydroxy-3-(pyridin-2-ylmethyl)-3,4-dihydro-2H-chromen-7-yl]phenyl}-methanesulfonamide]",55
19,"O=S(=O)(Nc1ccccc1-c1ccc2c(c1)OCC(Cc1cc3ccccc3s1)C2O)C(F)(F)F (racemic) [Example 34, N-(2-((3,4-rac-trans)-3-(benzo[b]thiophen-2-ylmethyl)-4-hydroxychroman-7-yl)phenyl)-1,1,1-trifluoromethanesulfonamide]",44
20,"O=S(=O)(Nc1ccccc1-c1ccc2c(c1)OC[C@@H](Cc1ccncc1)[C@@H]2O)C(F)(F)F (single isomer, unassigned) [Example 25, 1,1,1-trifluoro-N-{2-[(3R,4S or 3S,4R)-4-hydroxy-3-(pyridin-4-ylmethyl)-3,4-dihydro-2H-chromen-7-yl]phenyl}methanesulfonamide]",412
21,"O=S(=O)(Nc1ccccc1-c1ccc2c(c1)OC[C@H](Cc1ncco1)[C@H]2O)C(F)(F)F (racemic) [Example 15, 1,1,1-Trifluoro-N-{2-[(rac-trans)-4-hydroxy-3-(1,3-oxazol-2-ylmethyl)-3,4-dihydro-2H-chromen-7-yl]phenyl}methanesulfonamide]",994
22,"Cn1nccc1C[C@@H]1COc2cc(-c3ccccc3NS(=O)(=O)C(F)(F)F)ccc2[C@H]1O (single isomer, unassigned) [Example 66, 1,1,1-trifluoro-N-(2-{(3,4-trans)-4-hydroxy-3-[(1-methyl-1H-pyrazol-5-yl)methyl]-3,4-di-hydro-2H-chromen-7-yl}-phenyl)methanesulfonamide]",210
23,"O=S(=O)(Nc1ccccc1-c1ccc2c(c1)OC[C@H](Cc1cn(-c3ccccc3)nn1)[C@H]2O)C(F)(F)F (racemic) [Example 14, 1,1,1-Trifluoro-N-(2-{(rac-trans)-4-hydroxy-3-[(1-phenyl-1H-1,2,3-triazol-4-yl)methyl]-3,4-dihydro-2H-chromen-7-yl}phenyl)methanesulfonamide]",101
24,"O=S(=O)(Nc1ncc(F)cc1-c1ccc2c(c1)OC[C@@H](Cc1ccccn1)[C@@H]2O)C(F)(F)F (single isomer, unassigned) [Example 84, 1,1,1-Trifluoro-N-(5-fluoro-3-((3,4-trans)-4-hydroxy-3-(pyridin-2-ylmethyl)chroman-7-yl)pyridin-2-yl)methanesulfonamide]",1610
25,"CS(=O)(=O)Nc1ccccc1-c1ccc2c(c1)OC[C@H](Cc1ccccn1)[C@H]2O (single isomer, unassigned) [Example 72, N-{2-[(3S,4R or 3R,4S)-4-hydroxy-3-(pyridin-2-ylmethyl)-3,4-dihydro-2H-chromen-7-yl]phenyl}methanesulfonamide]",2980
26,"Cc1cccc(C[C@H]2COc3cc(-c4ccccc4NS(=O)(=O)C(F)(F)F)ccc3[C@@H]2O)n1 (racemic) [Example 20, 1,1,1-Trifluoro-N-(2-{(rac-trans)-4-hydroxy-3-[(6-methylpyridin-2-yl)methyl]-3,4-dihydro-2H-chromen-7-yl}phenyl)methanesulfonamide]",215
